Experimental data: patent US9707200B2, “Metabolism-improving agent comprising rare fatty acid” (KYOTO UNIVERSITY, priority 2012, dated 2017)

Legend:
HepG2 cells [1] = assay: Immature and mature SREBP-1 protein expression induced by LXR agonist, Western blot; assay type: cell-based, human; settings: 10 nM T0901317 + 60 μM fatty acid, 24 hr; for immature SREBP-1 expression induced by LXR agonist: membrane fraction; for mature SREBP-1 expression induced by LXR agonist: nuclear fraction
Procedure: (§1) HepG2 cells (2.0×10^5 cells/mL) were cultured in DMEM medium containing 10% FES for 24 hr, and the medium was exchanged with 0.1% BSA-containing DMEM medium containing 10 nM LXR agonist T0901317 (Cayman Chemicals) and 60 μM various fatty acid. After culture for 24 hr, the cells were recovered, and total RNA was extracted using Sepasol reagent (Nacalai Tesque). After DNase treatment, reverse transcription was performed using SuperScriptII (Invitrogen) to give a cDNA solution. Using SYBR Green Mix (Bio-Rad, Richmond, Calif.) and gene-specific primer (Table 1), real-time PCR was performed as follows.
In addition, the protein expression level of immature and mature SREBP-1c was measured. Cells treated as mentioned above were dispersed in buffer A (250 mM sucrose, 10 mM HEPES-KOH, 10 mM KCl, 1.5 mM MgCl2, 1 mM EDTA-Na, 1 mM EGTA-Na, pH 7.6) containing a protease inhibitor, passed 20 times through a 23 gauge injection needle, and centrifuged (1,000×g, 4° C., 5 min) to separate into supernatant 1 and precipitate 1. The precipitate 1 was re-dissolved in buffer B (20 mM HEPES-KOH, 0.42 M NaCl, 2.5% glycerol, 1.5 mM MgCl2, 1 mM EDTA-Na, 1 mM EGTA-Na, pH 7.6), and centrifuged (10^5×g, 4° C., 15 min). The obtained supernatant 2 was used as a nuclear fraction (including mature form). The supernatant 1 was further centrifuged (10^5×g, 4° C., 15 min), and the obtained precipitate 2 was dissolved in cell lysate (10 mM Tris-HCl, 100 mM NaCl, 1% SDS, 1 mM EDTA-Na, 1 mM EGTA-Na) and used as a membrane fraction (including immature form). Using these as samples, measurement was performed by Western blot method using anti-SREBP-1 polyclonal antibody (Santa Cruz). Using Dual luciferase system (Promega), antagonizing action on LXR was evaluated by luciferase assay. p3xIR1-tk-Luc, pCMX-hLXRa, pRL-CMX were introduced into HepG2 cell. After culture in a 0.1% BSA-containing serum-free medium containing various fatty acids and T0901317 for 24 hr, the luciferase activity was measured.

PPARγ = target: T1, PPARγ (Homo sapiens, UniProt P37231); assay: PPARγ ligand activity, GAL4-PPARγ reporter luciferase assay in CV-1 cells; assay type: cell-based; settings: 24 hr incubation, KetoA and HYA each at 30 μM, other fatty acids by a similar method
T1 construct: expressed in transfected cells; host or cells: CV-1 (African green monkey kidney)
T1 sequence (P37231 238-503 limits assumed): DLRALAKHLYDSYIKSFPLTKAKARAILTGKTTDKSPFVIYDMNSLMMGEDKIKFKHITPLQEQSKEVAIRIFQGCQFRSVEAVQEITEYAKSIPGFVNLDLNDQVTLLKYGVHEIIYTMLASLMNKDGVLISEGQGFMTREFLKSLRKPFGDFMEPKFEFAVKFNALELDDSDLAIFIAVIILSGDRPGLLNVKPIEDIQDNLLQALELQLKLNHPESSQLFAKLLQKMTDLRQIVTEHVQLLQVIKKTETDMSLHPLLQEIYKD
Procedure: To evaluate the function of oxo fatty acid and the like, PPARα, γ-activating action was measured first. The measurement was performed in reference to Nobuyuki Takahashi et al., FEES Letters 514 (2002) p. 315-322, “Dual action of isoprenols from herbal medicines on both PPARgamma and PPARalpha in 3T3-L1 adipocytes and HepG2 hepatocytes.”, the section of Materials and Methods “Reporter plasmids and luciferase assays”. To be specific, a plasmid containing DNA encoding a fused protein of PPARα, γ ligand binding region and GAL4 DNA binding region (pM-hPPARα or pM-hPPARγ), a reporter plasmid containing GAL4 binding DNA sequence linked to luciferase (p4xUASg-tk-luc), and internal control (pRL-CMV) to standardize transfection efficiency were introduced into CV-1 cell derived from the kidney of African green monkey. The ligand described below was added to the cells and, after incubation for 24 hr, luciferase activity was measured. As a ligand, KetoA and HYA were each added at 30 μM.
The concentration of the sample was adjusted with ethanol. Ethanol was used as a negative control, […], and GW7647 (10 nM) and Troglitazone (5 μM) were used as […].

HepG2 cells [2] = assay: Effect on LXR agonist-induced expression of fatty acid synthesis genes, real-time PCR; assay type: cell-based, human; settings: 10 nM T0901317 + 60 μM fatty acid, 24 hr
Procedure: Using human liver cancer-derived HepG2 cells (cell No.; JCRB1054, the Health Science Research Resources Bank), a suppressive effect on fatty acid synthesis promotion induced by LXR agonist was evaluated by reference to the method of Zaima et al. (Journal of Lipid Research 47, 2712-2717, 2006).
as §1
1. Reaction at 96° C., 15 min, 2. reaction at 96° C., 15 sec, 3. reaction at 60° C. for 30 sec, 4. measurement of fluorescence, 5. 2-4 were repeated 40 times, 6. the melting curve was measured from 65° C. to 95° C. at 0.4° C. intervals. As the internal standard, 18S rRNA was used. The genes involved in the fatty acid synthesis as measured were Sterol regulatory element binding protein-1c (SREBP-1c), Stearoyl coenzyme A desaturase-1 (SCD-1), Fatty acid synthase (FAS), and Acetyl CoA carboxylase-1 and -2 (ACC-1, 2). As for the amount of accumulated intracellular TG, the lipid was extracted with chloroform-methanol, and quantified by triglyceride-′E Test Wako (Wako Pure Chemical Industries, Ltd.).

KKAy mouse = assay: Effect in obesity or diabetes model mouse fed high-fat diet with added fatty acid; assay type: in vivo; settings: for body weight: 4 weeks; for body weight / blood glucose level: vs control group
Procedure: (1) Using KKAy mouse as obesity or diabetes model mouse, the effect of KetoA, HYA was evaluated. KKAy mice (KKAy/TaJcl, male, 4-week-old, purchased from CLEA Japan, Inc. and individually bred) were preliminarily bred on a commercially available normal diet (ND) for 1 week, divided into 5 groups, and each group was bred on a high-fat diet (HFD) as a basic feed and given a non-addition feed (control group), or a feed added with different amounts of KetoA and HYA for 4 weeks. The KetoA, HYA-added feed was prepared by adding KetoA, HYA to HFD such that the amount to be added was 0.05% (w/w) (0.05% group) or 0.1% (w/w) (0.1% group).
(2) The profile of the body weight and blood glucose level of the KKAy mouse was measured. After the start of the test feed breeding, the oxygen consumption level was measured on day 16-19, an oral glucose loading test was performed on day 24, and the rectal temperature was measured on day 26. The next day of the completion of experimental breeding, the KKAy mouse was dissected, and the organ weight and plasma neutral fat level were measured.

Row | SMILES | immature SREBP-1 expression induced by LXR agonist (HepG2 cells [1]) | mature SREBP-1 expression induced by LXR agonist (HepG2 cells [1]) | PPARγ agonist activity (relative luciferase activity) (PPARγ) | ACC1 mRNA expression induced by LXR agonist (HepG2 cells [2]) | ACC2 mRNA expression induced by LXR agonist (HepG2 cells [2]) | FAS mRNA expression induced by LXR agonist (HepG2 cells [2]) | SCD-1 mRNA expression induced by LXR agonist (HepG2 cells [2]) | suppression of SREBP-1c mRNA expression induced by LXR agonist (HepG2 cells [2]) | body weight (KKAy mouse; HFD with 0.05% (w/w) added) | blood glucose level (KKAy mouse; added-feed group, amount not specified) | blood glucose level (KKAy mouse; 0.05% group, at 4 weeks of test diet) | intraperitoneal white fat weight (KKAy mouse; 0.1% group, after 4 weeks) | plasma neutral fat level (KKAy mouse; 0.1% group, after 4 weeks) | blood glucose level (KKAy mouse; 0.1% group, at 4 weeks of test diet) | body weight (KKAy mouse; HFD with 0.1% (w/w) added) | oxygen consumption level (KKAy mouse; day 16-19, added-feed group vs control group) | rectal temperature (KKAy mouse; day 26, added-feed group vs control group)
1 | CCCCC/C=C\CC(O)CCCCCCCCC(=O)O (stereo not drawn) [HYA, 10-hydroxy-cis-12-octadecenoic acid] | strongly suppressed | strongly suppressed | some PPARγ agonist activity | down regulation | down regulation | down regulation | down regulation | strong suppressive action | significant suppression of body weight increase | tendency toward suppression of blood glucose level increase | – | – | – | – | – | – | –
2 | CCCCC/C=C\CC(=O)CCCCCCCCC(=O)O [KetoA, 10-oxo-cis-12-octadecenoic acid] | strongly suppressed | strongly suppressed | strong PPARα and γ agonist activity | down regulation | down regulation | down regulation | down regulation | strong suppressive action | body weight increase suppression tendency | – | tendency toward suppression of blood glucose increase | significant decrease | significant decrease | stronger, significant hypoglycemic action | significant suppression of body weight increase | increase in the oxygen consumption level | increase in the rectal temperature
